{"source": "patent US20140072990A1", "about": "“FLUORESCENT SUBSTRATE FOR DETECTION OF ENZYMATIC ACTIVITY OF NITRILE-RELATED ENZYME” (The University of Tokyo, priority 2010, published 2014)", "key": {"[1]": {"tested_on": "Rhodococcus sp. strain SK92-derived nitrilase", "test": "Nitrilase-catalyzed reaction for 24 hours, observation by the naked eye (Example 4)", "format": "biochemical", "conditions": "0.1 mM substrate stock, JM109/pUC118 control showed little change in color", "method": "10 μL of sodium phosphate buffer (pH 7.0), 75 μL of sterilized water and 5 μL of 0.1 mM nitrile fluorescent substrate (compound 2: dissolved in DMSO) were mixed together and pre-incubated at 30° C. A cell-free extract (10 μL), which had been prepared in the same manner as shown in Example 3, was added to initiate the reaction."}, "[2]": {"test": "Fluorescence quantum yield measurement of compounds 1 to 6", "format": "physicochemical", "method": "Compounds 1 to 6 obtained above were measured for their fluorescence.\nCompounds 1 to 6 were also measured for their fluorescence quantum yield (Φfl). […] With respect to compounds 5 and 6, it should be noted that their fluorescence quantum yields were calculated as values in isolated form based on the concentration ratio determined by HPLC."}, "[3]": {"tested_on": "Rhodococcus sp. strain SK92-derived nitrilase", "test": "Nitrilase-catalyzed reaction with cell-free extract, detection with fluorescence imager (Example 3)", "format": "biochemical", "conditions": "30° C., 1 hour, excited at 488 nm, detected at 530 nm; JM109/pUC118 control showed no change", "method": "(§1) 10 μL of sodium phosphate buffer (pH 7.0), 75 μL of sterilized water and 5 μL of 0.01 mM nitrile fluorescent substrate (compound 2: dissolved in 10% DMSO) were mixed together and pre-incubated at 30° C. The cell-free extract prepared above (10 μL) was added to initiate the reaction. After the reaction at 30° C. for 1 hour, the mixture was transferred to a 96-well microplate and fluorescence was detected with a fluorescence imager (BioRad Pharos FX molecular Imager, excited at 488 nm, detected at 530 nm).\nA recombinant E. coli, JM109/pSK002, which highly expresses Rhodococcus sp. strain SK92-derived nitrilase (JP 8-173169 A) was inoculated into 1 ml of a 50 ampicillin-containing LB medium (1% Bactotryptone, 0.5% Bactoyeast extract, 0.5% NaCl) and pre-cultured at 37° C. for 7 hours. The culture broth was taken in a volume of 0.1 ml and added to 100 ml of the same medium (containing 50 μg/ml ampicillin and 1 mM IPTG), followed by shaking culture at 37° C. for 15 hours. The resulting culture broth was centrifuged (3,700×g, 10 minutes, 4° C.) to collect the cells, which were then washed with 10 mM sodium phosphate buffer (pH 7.0) and suspended in the same buffer. As a control strain, JM109/pUC118 was used. […]\nIn the same manner as shown in Example 2, the reaction was performed using a nitrile fluorescent substrate (compound 2), followed by detection with a fluorescence imager."}, "[4]": {"target": "T1, Rhodococcus rhodochrous strain J1-derived nitrile hydratase (Rhodococcus rhodochrous, UniProt P21219+P21220)", "T1 construct": "made in house; host or cells: Rhodococcus rhodochrous ATCC12674 transformed with pSJ034; crude cell-free extract", "T1 sequence (P21219 1-203)": "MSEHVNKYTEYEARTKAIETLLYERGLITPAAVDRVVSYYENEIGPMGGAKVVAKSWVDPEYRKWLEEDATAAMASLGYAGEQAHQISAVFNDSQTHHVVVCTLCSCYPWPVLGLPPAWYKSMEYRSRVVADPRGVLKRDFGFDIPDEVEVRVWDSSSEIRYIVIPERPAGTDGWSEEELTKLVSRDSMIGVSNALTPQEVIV", "T1 sequence (P21220 1-229)": "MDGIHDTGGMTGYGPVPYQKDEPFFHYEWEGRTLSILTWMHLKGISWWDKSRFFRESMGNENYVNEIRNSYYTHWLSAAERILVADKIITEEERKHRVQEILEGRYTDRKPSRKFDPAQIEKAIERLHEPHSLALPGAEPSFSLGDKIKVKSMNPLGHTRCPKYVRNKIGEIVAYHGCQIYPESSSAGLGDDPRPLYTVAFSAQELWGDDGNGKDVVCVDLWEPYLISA", "test": "Detection of nitrile hydratase-catalyzed enzymatic reaction using fluorometer (Example 5)", "format": "biochemical", "conditions": "for increase in fluorescence in comparison with a solution not containing the cell-free extract: crude nitrile hydratase solution, 37° C., 5 h after addition, 490 nm excitation light", "method": "Nitrile hydratase solution was prepared in the same manner as shown in Example 2.\n(§2) 178 μL of sodium phosphate buffer (200 mM, pH 7.3) and 2 μL of 1 mM fluorescent substrate (compound 7 or compound 2: dissolved in DMSO) were mixed together and pre-incubated at 37° C. The cell-free extract prepared above (20 μL) was added to initiate the reaction. Sampling was conducted at one hour intervals by addition of 380 μL sodium phosphate buffer (200 mM, pH 7.3) to 20 μL reaction solution, and each sample was measured for its fluorescence using a spectrophotofluorometer, model F-4500 (Hitachi High-Technologies Corporation, Japan). The measurement was performed with 490 nm excitation light under the following conditions: a slit width of 2.5 nm/2.5 nm, a photomultiplier voltage of 700 V and 37° C."}, "[5]": {"test": "Fluorescence quantum yield, absolute PL quantum yield measurement system (Quantaurus-QY)", "format": "physicochemical", "conditions": "0.2 μM, 0.02% DMSO, 200 mM sodium phosphate buffer pH 7.3, 470 nm excitation light", "method": "The absorption spectra and fluorescence quantum yields of the compounds were measured as follows.\nA 1 mM solution of compound 7 in DMSO was prepared and this solution was added to 200 mM sodium phosphate buffers of pH 2 to 12 to prepare 1 μM sample solutions containing 0.1% DMSO. These sample solutions were measured for their absorption spectra between 300 nm and 600 nm with an ultraviolet and visible spectrophotometer UV-2450 (Shimadzu Corporation, Japan). In addition, a 0.2 μM sample solution of compound 7 containing 0.02% DMSO in 200 mM sodium phosphate buffer (pH 7.3) was prepared and measured for its fluorescence quantum yield using an absolute PL quantum yield measurement system, Quantaurus-QY (Hamamatsu Photonics K.K., Japan), under irradiation with 470 nm excitation light."}, "[6]": {"target": "T1, Rhodococcus rhodochrous strain J1-derived nitrile hydratase", "test": "Nitrile hydratase-catalyzed reaction with cell-free extract, detection with fluorescence imager (Example 2)", "format": "biochemical", "conditions": "30° C., 1 hour, excited at 488 nm, detected at 530 nm; vector pK4 control showed no change", "description": "Plasmid pSJ034 designed to constitutively express Rhodococcus rhodochrous strain J1-derived nitrile hydratase in Rhodococcus bacterial cells was introduced into Rhodococcus rhodochrous strain ATCC12674. pSJ034 has been prepared from plasmid pSJ023 as described in the specification of JP 10-337185 A. pSJ023 was deposited as a transformant, R. rhodochrous ATCC12674/pSJ023 (FERM BP-6232), with the International Patent Organism Depositary, the National Institute of Advanced Industrial Science and Technology.\nRhodococcus rhodochrous strain ATCC12674 was transformed with plasmid pSJ034 to prepare ATCC12674/pSJ034. The strain 12674 was also transformed with vector pK4 for use in a control experiment.\nThe colony was cultured as follows. The colony was inoculated into a kanamycin (50 mg/L)-containing MYK medium (10 ml) and pre-cultured at 30° C. for 24 hours. […]\nas §1, with “The cell-free extract prepared above (10 μL) was added to initiate the reaction.” left out"}, "[7]": {"test": "Stability of product in nitrile hydratase-catalyzed reaction solution by HPLC (Example 7)", "format": "in vitro ADME", "conditions": "absorption at 500 nm", "method": "(§3) Product stability after enzymatic reaction was studied by HPLC analysis.\n(§4) For HPLC analysis of the nitrile hydratase-catalyzed reaction solution (160 μL), the above pump, column, solvent conditions and detector were used to monitor absorption at 500 nm. On the other hand, for analysis of the nitrilase-catalyzed reaction solution (160 μL), the same procedure as used for analysis of the nitrile hydratase-catalyzed reaction solution was repeated to monitor absorption at 500 nm."}, "[8]": {"target": "T1, Rhodococcus rhodochrous strain J1-derived nitrile hydratase", "test": "HPLC analysis on nitrile hydratase-catalyzed reaction solution (Example 5)", "format": "biochemical", "conditions": "37° C., 5 hours, absorption at 500 nm", "method": "(§5) After reaction at 37° C. for 5 hours as described above, the reaction solution was analyzed by HPLC under the following conditions. • Model: fluid delivery pump PU-2080 (JASCO) • Column: Inertsil ODS-3 (4.6×250 mm) column (GL Sciences Inc.) • Solvent: eluted with a linear gradient from 75% acetonitrile/0.1% TFA in water (0 min) to 15% acetonitrile/0.1% TFA in water (30 min) • Detection: detector MD-2010 (JASCO), monitored by absorption at 500 nm"}, "[9]": {"tested_on": "Rhodococcus sp. strain SK92-derived nitrilase", "test": "Detection of nitrilase-catalyzed enzymatic reaction using fluorometer (Example 6)", "format": "biochemical", "method": "as §2\nNitrilase solution was prepared in the same manner as shown in Example 3.\nDetection was conducted in accordance with the procedures shown in Example 5, provided that the compound used in the experiment was compound 7 and the enzyme solutions used were a cell-free extract derived from JM109/pSK002 (containing nitrilase) and a cell-free extract derived from the above control strain JM109/pTrc99A (having no nitrilase activity)."}, "[10]": {"tested_on": "Rhodococcus sp. strain SK92-derived nitrilase", "test": "HPLC analysis on nitrilase-catalyzed reaction solution (Example 6)", "format": "biochemical", "method": "as §5\nNitrilase activity was analyzed in accordance with the procedures shown in Example 4."}, "[11]": {"test": "Stability of product in nitrilase-catalyzed reaction solution by HPLC (Example 7)", "format": "in vitro ADME", "conditions": "absorption at 500 nm", "method": "as §3, §4"}, "[12]": {"conditions": "calculated as values in isolated form based on the concentration ratio determined by HPLC (mixture of compounds 5 and 6)"}}, "note": "Where two headings read alike, the source gives them in different places."}
{"molecule": "COC(=O)c1cc(C#N)ccc1-c1c2ccc(=O)cc-2oc2cc(O)ccc12", "note": "[compound 2]", "values": [{"measurement": "fluorescence observed by the naked eye with nitrilase-expressing recombinant cell-free extract", "setting": "[1]", "result": "significant green fluorescence was observed"}, {"measurement": "Fluorescence quantum yield (Φf1)", "setting": "[2]", "result": 0.161}, {"measurement": "change in intensity of fluorescence with nitrilase-expressing recombinant cell-free extract", "setting": "[3]", "result": "significant increase in the intensity of fluorescence"}, {"measurement": "increase in fluorescence in comparison with a solution not containing the cell-free extract", "setting": "[4]", "result": "~3.9", "unit": "fold"}, {"measurement": "fluorescence quantum yield", "setting": "[5]", "result": 0.172}, {"measurement": "change in intensity of fluorescence with nitrile hydratase-expressing recombinant cell-free extract", "setting": "[6]", "result": "significant increase in the intensity of fluorescence"}]}
{"molecule": "COC(=O)c1ccc(C#N)cc1-c1c2ccc(=O)cc-2oc2cc(O)ccc12", "note": "[compound 1]", "values": [{"measurement": "Fluorescence quantum yield (Φf1)", "setting": "[2]", "result": 0.007}]}
{"molecule": "NC(=O)c1ccc(-c2c3ccc(=O)cc-3oc3cc(O)ccc23)c(C(=O)OCc2ccc(Cl)cc2)c1", "note": "[compound 9, 5-CONH2 fluorescein 4-chlorobenzyl ester]", "values": [{"measurement": "HPLC peak corresponding to ester hydrolysis product 5-CONH2 fluorescein", "setting": "[7]", "result": "not observed"}]}
{"molecule": "N#Cc1ccc(-c2c3ccc(=O)cc-3oc3cc(O)ccc23)c(C(=O)OCc2ccc(Cl)cc2)c1", "note": "[compound 7, 5-cyanofluorescein-4-chlorobenzyl ester]", "values": [{"measurement": "HPLC peak of substrate after nitrile hydratase-catalyzed reaction", "setting": "[8]", "result": "disappeared, while a peak of a new product generated by the enzymatic reaction appeared"}, {"measurement": "increase in fluorescence in comparison with a solution not containing the cell-free extract", "setting": "[4]", "result": "~7.2", "unit": "fold"}, {"measurement": "increase in fluorescence relative to that of compound 2", "setting": "[4]; nitrile hydratase reaction, compound 7 versus compound 2", "result": 1.5, "unit": "fold"}, {"measurement": "increase in fluorescence in comparison with the absence of the cell-free extract", "setting": "[9]; JM109/pSK002-derived cell-free extract (containing nitrilase), 5 h after addition", "result": "~7.5", "unit": "fold"}, {"measurement": "increase in fluorescence with control cell-free extract", "setting": "[9]; JM109/pTrc99A-derived cell-free extract (having no nitrilase activity)", "result": "little increase in its fluorescence"}, {"measurement": "HPLC peak of substrate after nitrilase-catalyzed reaction", "setting": "[10]; JM109/pSK002-derived cell-free extract, absorption at 500 nm", "result": "disappeared, while a peak of a new product generated by the enzymatic reaction appeared"}, {"measurement": "reaction product by HPLC with control cell-free extract", "setting": "[10]; JM109/pTrc99A-derived cell-free extract", "result": "no reaction product was observed"}, {"measurement": "fluorescence quantum yield", "setting": "[5]", "result": 0.154}]}
{"molecule": "COC(=O)c1ccc(C(=O)O)cc1-c1c2ccc(=O)cc-2oc2cc(O)ccc12", "note": "[compound 5]", "values": [{"measurement": "Fluorescence quantum yield (Φf1)", "setting": "[2]; [12]", "result": 0.0729}]}
{"molecule": "COC(=O)c1cc(C(N)=O)ccc1-c1c2ccc(=O)cc-2oc2cc(O)ccc12", "note": "[compound 4]", "values": [{"measurement": "Fluorescence quantum yield (Φf1)", "setting": "[2]", "result": 0.397}]}
{"molecule": "COC(=O)c1cc(C(=O)O)ccc1-c1c2ccc(=O)cc-2oc2cc(O)ccc12", "note": "[compound 6]", "values": [{"measurement": "Fluorescence quantum yield (Φf1)", "setting": "[2]; [12]", "result": 0.565}]}
{"molecule": "O=C(O)c1ccc(-c2c3ccc(=O)cc-3oc3cc(O)ccc23)c(C(=O)OCc2ccc(Cl)cc2)c1", "note": "[compound 11]", "values": [{"measurement": "HPLC peak corresponding to ester hydrolysis product 5-carboxylfluorescein", "setting": "[11]", "result": "not observed"}]}
{"molecule": "COC(=O)c1ccc(C(N)=O)cc1-c1c2ccc(=O)cc-2oc2cc(O)ccc12", "note": "[compound 3]", "values": [{"measurement": "Fluorescence quantum yield (Φf1)", "setting": "[2]", "result": 0.018}]}
